Data: patent publication US20230129326A1, “METHODS TO PREVENT SARS-COV-2 INFECTION AND TREAT COVID-19” (priority 2020, published 2023)
Values after ≈ are worked out from the molar mass of the structure shown.

Tests used:
[1] = tested on: SARS-CoV-2 pseudovirus entry in ACE2 expressing cells; format: cell-based
[2] = tested on: SARS-CoV-2 isolate USA-WA1/2020; assay: microbe, parasite or virus in culture; format: cell-based; conditions: Severe acute respiratory syndrome coronavirus 2, A549, read-out: EC50 against SARS-CoV-2 isolate USA-WA1/2020 in A549 overexpressing ACE2

SMILES | level of SARS-CoV-2 pseudovirus entry, varying concentrations (FIG. 15A) [1] | viral infection (GFP positive cells per image field) [1] | level of SARS-CoV-2 pseudovirus entry, varying concentrations (diminazene, cetirizine, labetalol graph) [1] | EC50 [2] [µg/mL]
CN1CCCC(n2nc(Cc3ccc(Cl)cc3)c3ccccc3c2=O)CC1 (centres unmarked) [azelastine] | significantly lowered the level of SARS-CoV-2 pseudovirus entry | substantially reduced viral infection | – | –
O=C(O)COCCN1CCN(C(c2ccccc2)c2ccc(Cl)cc2)CC1 (centres unmarked) [cetirizine] | – | reduced viral infection | significantly lowered the level of SARS-CoV-2 pseudovirus entry | –
CN(C)CCC(c1ccc(Cl)cc1)c1ccccn1 (centres unmarked) [chlorpheniramine] | – | reduced viral infection | – | –
N=C(N)c1ccc(/N=N/Nc2ccc(C(=N)N)cc2)cc1 [diminazene] | – | reduced viral infection | significantly lowered the level of SARS-CoV-2 pseudovirus entry | –
CN(C)CCOC(c1ccccc1)c1ccccc1 [diphenhydramine] | – | substantially reduced viral infection | – | –
OCCOCCN1CCN(C(c2ccccc2)c2ccc(Cl)cc2)CC1 (centres unmarked) [hydroxyzine] | significantly lowered the level of SARS-CoV-2 pseudovirus entry | substantially reduced viral infection | – | 27.3 (≈ 72.9 µM)
